Experimental data reported in patent publication US11078202B2, “β-lactamase inhibitor and use thereof” (priority 2018, dated 2021).
Counter-ions that a name gives are not always drawn.

Assays:
Type in all cases: cell-based
[1] = tested on: Klebsiella pneumoniae XNWB 0002; assay: MIC assay of test compounds combined with imipenem (4 μg/mL); settings: imipenem 4 μg/mL fixed
How it was run: (§1)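 Strains were revived from −80 °C stocks on TSA, subcultured, and single colonies were resuspended in saline to OD600 0.1-0.15. After a 300-fold dilution in 1.1×CAMHB, cells were combined with diluted compound and a fixed antibiotic. Growth was assessed after 16-20 h at 35±2 °C.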

[2] = tested on: Klebsiella pneumoniae XNWB 0004; assay: as above; settings: imipenem 4 μg/mL fixed
How it was run: as §1

[3] = tested on: Acinetobacter baumannii XNWB 0007; assay: as above; settings: imipenem 4 μg/mL fixed
How it was run: as §1

[4] = tested on: Pseudomonas aeruginosa XNWB 0008; assay: as above; settings: imipenem 4 μg/mL fixed
How it was run: as §1

[5] = tested on: Klebsiella pneumoniae XNWB 0005; assay: as above; settings: imipenem 4 μg/mL fixed
How it was run: as §1

[6] = tested on: Klebsiella pneumoniae XNWB 0006; assay: as above; settings: imipenem 4 μg/mL fixed
How it was run: as §1

[7] = tested on: Klebsiella pneumoniae XNWB 0001; assay: as above; settings: imipenem 4 μg/mL fixed
How it was run: as §1

[8] = tested on: Klebsiella pneumoniae XNWB 0003; assay: as above; settings: imipenem 4 μg/mL fixed
How it was run: as §1

[9] = tested on: Escherichia coli XNWB 0010; assay: MIC assay of test compounds combined with ampicillin (8 μg/mL); settings: ampicillin 8 μg/mL fixed
Procedure: (§2) The bacterial strains used for the minimum inhibitory concentration (MIC) test were frozen in a −80° C. ULT freezer and thawed 2 days before use. A small amount of frozen bacterial strains were scraped using a sterile inoculating loop, streaked onto a TSA solid culture dish for inoculation, and then cultured for 20-24 h at 35±2° C. in a normal atmospheric environment.
(§3) 5-10 colonies with similar morphology were picked from the culture dish using a sterile inoculating loop and then re-streaked onto a suitable solid culture dish. Then the dish was placed into a normal incubator for culture for 20-24 h at 35±2° C.
(§4) 5-10 single bacterial colonies were picked from the solid culture dish, resuspended in 500 μL of 0.9% NaCl, and adjusted to an OD600 of 0.1-0.15 with a spectrophotometer.
(§5) The bacteria were then diluted 300-fold with 1.1×CAMHB.
(§6) Test compounds of columns A-H: having a highest final test concentration of 64 μg/mL or 32 μg/mL, 2-fold diluted.
(§7) Dilution of test compounds: All test compounds were dissolved and diluted in dimethylsulfoxide (DMSO). 170 μL of 3.2 mg/mL (50*64 μg/mL) compound was transferred to wells (A1-H1) of column 1 of a dilution master plate and then 85 μL of DMSO was transferred to wells of other columns. Each compound was diluted 2-fold in sequence (i.e., 85 μL of compound was pipetted from column 1 into column 2 and mixed uniformly, 85 μL of compound was pipetted from column 2 into column 3 and mixed uniformly, then 85 μL of compound was pipetted from column 3 into column 4 and mixed uniformly, and so on until the dilution was done in column 11).
(§8) Preparation of an additive of ampicillin: Ampicillin was dissolved in ddH2O. 30 μL of 100 μg/mL (12.5×8 μg/mL) ampicillin was transferred to columns 1-11 of an additive plate, followed by the addition of 30 μL of ddH2O to column 12.
(§9) 2 μL of each compound in the dilution master plate of the test compounds was transferred to the corresponding well of the assay plates. In the mean time, 2 μL of 100% DMSO was transferred to the compound-free wells (GC and SC wells). (1) 8 μL of imipenem in the additive plate of imipenem was transferred to the corresponding wells of the assay plates; (2) 8 μL of ceftazidime in the additive plate of ceftazidime was transferred to the corresponding wells of the assay plates; (3) 8 μL of ampicillin in the additive plate of ampicillin was transferred to the corresponding wells of the assay plates.
(§10) 90 μL of corresponding bacterial inocula were added to wells (except for SC wells) of the assay plates.
(§11) After addition, the 6 assay plates were covered by sterile covers. The mixtures in the assay plates were centrifuged by a centrifuge at 1000 rpm for 30 s, and mixed uniformly by oscillating with a microplate oscillator at 800 rpm for 1 min, and then cultured in a common incubator for 16-20 h at 35±2° C.
(§12) The minimum inhibitory concentration of each compound was recorded by reference to guidelines from the Clinical and Laboratory Standards Institute.
(§13) The minimum inhibitory concentrations of the compounds of the present invention and antibiotics (imipenem, ceftazidime, and ampicillin) against 11 strains of bacteria were tested in this study by reference to the medium microdilution method as indicated by the Clinical and Laboratory Standards Institute. The effect of the test compounds in combination with imipenem, ceftazidime, and ampicillin was also tested. Compounds were diluted two-fold in 96-well plates from the highest detection concentration of 64 μg/mL. The test compounds were tested in combination with a fixed concentration of imipenem (4 μg/mL), ceftazidime (8 μg/mL), and ampicillin (8 μg/mL). The bacterial inocula in the assay plates were resuscitated from TSA and diluted in CAMHB, while growth controls (GC wells) and sterile controls (SC wells) were set up in the assay plates. […]

[10] = tested on: Enterobacter aerogenes XNWB 0011; assay: as above; settings: ampicillin 8 μg/mL fixed
Procedure: as §2, §3, §4, §5, §6, §7, §8, §9, §10, §11, §12, §13

[11] = tested on: Escherichia coli XNWB 0009; assay: as above; settings: ampicillin 8 μg/mL fixed
Procedure: as §2, §3, §4, §5, §6, §7, §8, §9, §10, §11, §12, §13

[12] = tested on: Klebsiella pneumoniae XNWB 0002; assay: MIC assay of test compounds combined with ceftazidime (8 μg/mL); settings: ceftazidime 8 μg/mL fixed
How it was run: as §1

[13] = tested on: Klebsiella pneumoniae XNWB 0004; assay: as above; settings: ceftazidime 8 μg/mL fixed
How it was run: as §1

[14] = tested on: Acinetobacter baumannii XNWB 0007; assay: as above; settings: ceftazidime 8 μg/mL fixed
How it was run: as §1

[15] = tested on: Pseudomonas aeruginosa XNWB 0008; assay: as above; settings: ceftazidime 8 μg/mL fixed
How it was run: as §1

[16] = tested on: Klebsiella pneumoniae XNWB 0005; assay: as above; settings: ceftazidime 8 μg/mL fixed
How it was run: as §1

[17] = tested on: Klebsiella pneumoniae XNWB 0006; assay: as above; settings: ceftazidime 8 μg/mL fixed
How it was run: as §1

[18] = tested on: Klebsiella pneumoniae XNWB 0001; assay: as above; settings: ceftazidime 8 μg/mL fixed
How it was run: as §1

[19] = tested on: Klebsiella pneumoniae XNWB 0003; assay: as above; settings: ceftazidime 8 μg/mL fixed
How it was run: as §1

Compound | The minimum concentration of test compounds combined with imipenem (4 μg/mL) for bacteriostasis [1] | The minimum concentration of test compounds combined with imipenem (4 μg/mL) for bacteriostasis [2] | The minimum concentration of test compounds combined with imipenem (4 μg/mL) for bacteriostasis [3] | The minimum concentration of test compounds combined with imipenem (4 μg/mL) for bacteriostasis [4] | The minimum concentration of test compounds combined with imipenem (4 μg/mL) for bacteriostasis [5] | The minimum concentration of test compounds combined with imipenem (4 μg/mL) for bacteriostasis [6] | The minimum concentration of test compounds combined with imipenem (4 μg/mL) for bacteriostasis [7] | The minimum concentration of test compounds combined with imipenem (4 μg/mL) for bacteriostasis [8] | The minimum concentration of test compounds combined with ampicillin (8 μg/mL) for bacteriostasis [9] | The minimum concentration of test compounds combined with ampicillin (8 μg/mL) for bacteriostasis [10] | The minimum concentration of test compounds combined with ampicillin (8 μg/mL) for bacteriostasis [11] | The minimum concentration of test compounds combined with ceftazidime (8 μg/mL) for bacteriostasis [12] | The minimum concentration of test compounds combined with ceftazidime (8 μg/mL) for bacteriostasis [13] | The minimum concentration of test compounds combined with ceftazidime (8 μg/mL) for bacteriostasis [14] | The minimum concentration of test compounds combined with ceftazidime (8 μg/mL) for bacteriostasis [15] | The minimum concentration of test compounds combined with ceftazidime (8 μg/mL) for bacteriostasis [16] | The minimum concentration of test compounds combined with ceftazidime (8 μg/mL) for bacteriostasis [17] | The minimum concentration of test compounds combined with ceftazidime (8 μg/mL) for bacteriostasis [18] | The minimum concentration of test compounds combined with ceftazidime (8 μg/mL) for bacteriostasis [19]
N=C(N)NCC1(c2nnc([C@@H]3CC4(CC4)[C@@H]4CN3C(=O)N4OS(=O)(=O)O)o2)CC1 [Example 13, (1R,4S)-4-(5-(1-(guanidinomethyl)cyclopropyl)-1,3,4-oxadiazol-2-yl)-6-oxo-5,7-diazaspiro[bicyclo[3.2.1]octane-2,1′-cyclopropan]-7-yl sulfate] | A (A: <8 μg/mL) | A (A: <8 μg/mL) | C (C: 16-128 μg/mL) | A (A: <8 μg/mL) | A (A: <8 μg/mL) | A (A: <8 μg/mL) | A (A: <8 μg/mL) | A (A: <8 μg/mL) | A (A: <8 μg/mL) | A (A: <8 μg/mL) | A (A: <8 μg/mL) | A (A: <8 μg/mL) | B (B: 8-16 μg/mL) | B (B: 8-16 μg/mL) | B (B: 8-16 μg/mL) | A (A: <8 μg/mL) | A (A: <8 μg/mL) | A (A: <8 μg/mL) | A (A: <8 μg/mL)
NCc1nnc([C@@H]2CC3(CC3)[C@@H]3CN2C(=O)N3OS(=O)(=O)O)o1 [Example 2, (1R,4S)-4-(5-(aminomethyl)-1,3,4-oxadiazol-2-yl)-6-oxo-5,7-diazaspiro[bicycle [3.2.1]octane-2,1′-cyclopropan]-7-yl sulfate] | A (A: <8 μg/mL) | A (A: <8 μg/mL) | C (C: 16-128 μg/mL) | C (C: 16-128 μg/mL) | A (A: <8 μg/mL) | A (A: <8 μg/mL) | A (A: <8 μg/mL) | A (A: <8 μg/mL) | A (A: <8 μg/mL) | A (A: <8 μg/mL) | A (A: <8 μg/mL) | A (A: <8 μg/mL) | B (B: 8-16 μg/mL) | C (C: 16-128 μg/mL) | C (C: 16-128 μg/mL) | A (A: <8 μg/mL) | A (A: <8 μg/mL) | A (A: <8 μg/mL) | A (A: <8 μg/mL)
N=C(N)NCC(O)c1nnc([C@@H]2CC3(CC3)[C@@H]3CN2C(=O)N3OS(=O)(=O)O)o1 (stereo partly drawn) [Example 10, (1R,4S)-4-(5-(2-guanidyl-1-hydroxyethyl)-1,3,4-oxadiazol-2-yl)-6-oxo-5,7-diazaspiro [bicyclo[3.2.1]octane-2,1′-cyclopropan]-7-yl sulfate] | A (A: <8 μg/mL) | A (A: <8 μg/mL) | A (A: <8 μg/mL) | A (A: <8 μg/mL) | A (A: <8 μg/mL) | A (A: <8 μg/mL) | A (A: <8 μg/mL) | A (A: <8 μg/mL) |  |  |  | A (A: <8 μg/mL) | A (A: <8 μg/mL) | C (C: 16-128 μg/mL) | B (B: 8-16 μg/mL) | A (A: <8 μg/mL) | A (A: <8 μg/mL) | A (A: <8 μg/mL) | A (A: <8 μg/mL)
